Measurements published in patent US6583127B1, “Use of etherlysophospholipids as antiinflammatory agents” (Inkeysa. SA, priority 1998, dated 2003).

Legend:
[1] = tested on: bentonite-induced skin edema in mice; experiment: Bentonite-induced skin edema in mice; format: in vivo; details: for Area (area below the curve of difference between right and left pad diameter) / Inhibition of the inflammatory process: mice; for Inhibition of the inflammatory process: versus inflamed control
Description: Mice were individually identified with an ear code and were kept in groups of 6 per cage (Makrolon: 47.6×22.7×14.5 cm). Each cage was individually labelled with the n^o. of the study, type of treatment, doses used and route of administration, as well as the name of the director of the study, number and gender of contained animals, date of arrival and of the beginning of the experiment.
The animals had free access to mouse standard chow (UAR A04C; Usine d'Alimentation Rationelle, 91360-Villemoisson sur Orge, Francia; lot nos. 70520 and 70722). Drinking water access was ad libitum. The water, supplied by the Compañia de Aguas de Sabadell, S.A., is routinely analysed for the presence of possible contaminants. The temperature in the animal rooms was 22±3° C., with sporadic peaks of 26° C.; air humidity was 60±10%, with sporadic peaks of 80%. Daily light (between 7:00 h and 19:00 h) and dark phases were installed automatically.
Upon arrival, all animals were allowed to rest in the facilities for 8 days before use in the experiment. Table 2 indicates the six random groups of 10 mice each were set for experimentation.
The diameter of both hind pads of all mice was measured at day 0 and set as the basal value. Edema was then induced by injecting s.c. 13.3 mg/ml bentonite in 0.03 ml PBS into the right food pad. The corresponding mice were given daily the different compounds orally for 21 days. The inflamed control group was given 0.2 ml PBS only. The diameter of hind pads, as well as the body weight, was then measured every other day.
In each experimental group the average value, the standard deviation (SD) and the standard error was determined for the two parameters studied (hind pad diameter and body weight). The factor variance analysis (FVA) was used to compare the values obtained in the different groups. Where statistically significant differences were observed, the Duncan-Kramer test for a p<0.05 was applied.
The area below the curves corresponding to the diameters of the right and left pads was calculated and the evolution of the difference between them were plotted (FIGS. 7 and 8). The anti-inflammatory capacity of the different substances was evaluated as the extent of inhibition of the inflammatory process that was calculated with the formula [formula]
where C is the area below the inflammed control group and T the area below the different treatment groups.

[2] = tested on: PGE2 synthesis in human mucosal gastric biopsies; experiment: Ex vivo PGE2 synthesis in human mucosal gastric biopsies
Description: The ability of the gastric mucosa to generate prostaglandins estimates total cyclooxygenase (COX) activity (COX-1 plus any COX-2). To measure ex vivo prostaglandin E2 (PGE2) synthesis, normal gastric mucosal biopsies were immediately placed in Ependorff tubes containing phosphate-buffered saline (PBS). […] Each mucosal gastric biopsy was cut into different pieces (about 1 mg weight) that were subsequently weighed and incubated in the absence or in the presence of the distinct agents indicated in the corresponding Table for 20 min at 37° C. in 200 μl Hepes-glucose buffer. Then cells were mucosal gastric samples were pelleted by centrifugation, lysed and intracellular PGE2 was measured using an enzyme immunoassay kit (Amersham Pharmacia Biotech, Buckinghamshire, UK) following the manufacturer's instructions. Prostaglandin synthesis is expressed as picograms of PGE2 synthesised per mg of tissue incubation. Each experiment corresponded to the use of one biopsy, in order to avoid variability among different biopsies. Normal volunteers without a previous pharmacological treatment were selected for these assays. The normal gastroduodenal mucosa was visually assessed by endoscopy.
Human mucosal gastric biopsies were cut into about 1 mg pieces, incubated with the indicted agents (10 μM) for 20 min at 37° C. in Hepes-glucose buffer, and then the intracellular content of PGE2 was determined as described in the Methods section. Untreated control samples were run in parallel. Data are shown as mean Values+S.D. from three independent experiments.

[3] = tested on: neutrophils; experiment: Toxicity for neutrophils; format: cell-based, human
Description: (§1) Isolation and treatment of neutrophils.

[4] = tested on: PGE2 production in murine fibroblasts 3T3; experiment: PGE2 measurement in 3T3 cells (enzyme immunoassay); format: cell-based, Mouse
Description: Cell culture. Human promyelocytic HL-60 cells and promonocytic U937 cells were grown in RPMI-1640 culture medium supplemented with 10% (v/v) heat-inactivated fetal calf serum, 2 mM L-glutamine, 100 units/ml penicillin and 24 μg/ml gentamicin. Mouse 3T3 fibroblasts were grown in Dulbecco's modified Eagle's medium (DMEM) supplemented with 10% (v/v) heat-inactivated fetal calf serum, 2 mM L-glutamine, 100 units/ml penicillin and 24 μg/ml gentamicin. Cells were incubated at 37° C. in a humidified atmosphere at 5% CO2 and 95% air.
Prostaglandin E2 (PGE2) measurement. 3T3 cells (1.5×10^5 in 100 μl in complete DMEM culture medium) were incubated overnight at 37° C. (5% CO2) in 96-well microtitre plates (tissue-culture grade). Then, the distinct agents were added in 100 μl complete DMEM culture medium for 20 min at 37° C. After washing thoroughly the cells with PBS, cells were lysed and intracellular PGE2 was measured using an enzyme immunoassay kit (Amersham Pharmacia Biotech, Buckinghamshire, UK) following the manufacturer's instructions. Data obtained in duplicate measurements were converted into actual amounts of PGE2 using a calibration curve run in parallel with defined amounts of PGE2.

[5] = tested on: Mouse bone marrow derived macrophages; experiment: Superoxide anion generation in macrophages (lucigenin chemoluminescent assay); format: cell-based; details: 1 or 3 μg/ml, 24 h; Zymosan-initiated; versus untreated controls (FIG. 2)
Description: Mouse bone marrow derived macrophages were incubated for 24 h at 37° C. in MEM+10% FCS to a concentration of 10^6 cells/ml in the absence or presence of ELPs IES01 and IEC01 at the concentration of 1 or 3 μg/ml. The O2^− free radicals were measured in a chemoluminescent assay that detects the photons generated by the reaction of superoxid anions with lucigenin. The liberated photons are counted with a luminometer Microlumat LB96P, Berthold, Wildbad, Germany. Collected macrophages are resuspended in 0.2 ml at a concentration of 10^6/ml in HEPES buffered medium containing 540 μg/ml lucigenin. Superoxid production is initiated by adding 50 mg of Zymosan and the emission of photons is measured with a luminometer for 2 h.

[6] = tested on: CD11b; experiment: Cell surface expression of CD11b in human neutrophils (immunofluorescence flow cytometry); format: cell-based; details: Medium = 100
Description: as §1
Monoclonal antibodies. […] The antibodies are commercially available.
Immunofluorescence flow cytometry. […] Results were expressed as relative MFI (rMFI), such that
rMFI=(MFIagent×100)/MFImedium
Background fluorescence was substracted from all values.

[7] = 2.5 mg/kg orally daily for 21 days
[8] = 5 mg/kg orally daily for 21 days

CCCCCCCCCCCCCCCCCCOCC(COP(=O)([O-])OCC[N+](C)(C)C)OC (stereo not shown) [IEC01, Edelfosine]
times more efficient in inhibiting inflammation than indomethacin, at the molecular level ([1]; 2.5 mg/kg versus indomethacin 2 mg/kg, taking molecular weights into account): 2 times | Area (area below the curve of difference between right and left pad diameter) [1, 7]: 5.9 ± 0.45 A.U. | Inhibition of the inflammatory process [1, 7]: 23.5% | Area (area below the curve of difference between right and left pad diameter) [1, 8]: 7.0 ± 1.34 A.U. | Inhibition of the inflammatory process [1, 8]: 9.7% | pg PGE2/mg (weight) ([2]; human mucosal gastric biopsies, agents 10 μM, 20 min at 37° C., Control 115 ± 26, mean ± S.D., three experiments): 131 ± 29 pg PGE2/mg | effect on mucosal PGE2 synthesis (in words) ([2]; normal mucosal gastric biopsies, ex vivo): did not inhibit | concentrations toxic for neutrophils [3]: higher than 50 μg/ml | pg PGE2 (intracellular) ([4]; 3T3 cells, 10 μM, 20 min at 37° C., Control 112 ± 21): 148 ± 22 pg | effect on PGE2 production (in words) ([4]; 3T3 fibroblasts, ionomycin-induced PGE2): no significant inhibition | amount of O2− free radicals produced by macrophages (inhibition, in words) [5]: higher | CD11b cell surface expression (rMFI) ([6]; 10 ng/ml, rMFI=(MFIagent×100)/MFImedium): 97.5 ± 8.5 | CD11b cell surface expression (rMFI) ([6]; 100 ng/ml): 101 ± 3 | CD11b cell surface expression (rMFI) ([6]; 500 ng/ml): 103 ± 3 | CD11b cell surface expression (rMFI) ([6]; 1 μg/ml): 105 ± 6 | CD11b cell surface expression (rMFI) ([6]; 5 μg/ml): 130 ± 15
